In PubChem BioAssay (NCI):
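96-well plates; 48 h exposure; 5 concentrations. Endpoints by linear interpolation between flanking doses. Not reached: highest tested concentration assigned. The concentration for 50% growth inhibition is given as GI50. The concentration for full growth arrest is given as TGI.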

Legend:
Assay in all cases: NCI tumour cell line growth inhibition, 48 h
SK-MEL-5 melanoma = system: SK-MEL-5 melanoma
NCI-H23 lung = system: NCI-H23 lung
NCI-H522 lung = system: NCI-H522 lung
UACC-62 melanoma = system: UACC-62 melanoma
HOP-92 NSCLC = system: HOP-92 NSCLC
HOP-62 NSCLC = system: HOP-62 NSCLC
UO-31 renal = system: UO-31 renal
SN12C renal = system: SN12C renal
COLO 205 colon = system: COLO 205 colon
A498 renal = system: A498 renal
EKVX NSCLC = system: EKVX NSCLC

**Q.** `CSc1nc2c(ncn2C2OC(CO)C(O)C(O)C2O)c(=O)n1C` (stereo not given) was tested. Which TGI (SK-MEL-5 melanoma) did it give?
**A.** > 100 µM

**Q.** What about the TGI (NCI-H23 lung) of the same molecule?
**A.** > 100 µM

**Q.** And the TGI (NCI-H522 lung)?
**A.** > 100 µM

**Q.** And the TGI (UACC-62 melanoma)?
**A.** > 100 µM

**Q.** And the TGI (HOP-92 NSCLC)?
**A.** > 100 µM

**Q.** And the TGI (HOP-62 NSCLC)?
**A.** > 100 µM

**Q.** And the TGI (UO-31 renal)?
**A.** > 100 µM

**Q.** And the TGI (SN12C renal)?
**A.** > 100 µM

**Q.** What about the TGI (COLO 205 colon) of the same molecule?
**A.** > 100 µM

**Q.** And the TGI (A498 renal)?
**A.** > 100 µM

**Q.** And the TGI (EKVX NSCLC)?
**A.** > 100 µM

**Q.** `Nc1nc2cc(COc3ccc(C(=O)O)cc3)ccc2nc1-c1ccccc1` was tested. Which TGI (SK-MEL-5 melanoma) did it give?
**A.** > 10 µM

**Q.** And the TGI (NCI-H23 lung)?
**A.** > 10 µM

**Q.** And the TGI (NCI-H522 lung)?
**A.** > 10 µM

**Q.** And the TGI (UACC-62 melanoma)?
**A.** > 10 µM

**Q.** What about the TGI (HOP-92 NSCLC) of the same molecule?
**A.** > 10 µM

**Q.** What about the TGI (HOP-62 NSCLC) of the same molecule?
**A.** > 10 µM

**Q.** What about the TGI (UO-31 renal) of the same molecule?
**A.** > 10 µM

**Q.** What about the TGI (SN12C renal) of the same molecule?
**A.** > 10 µM

**Q.** What about the TGI (COLO 205 colon) of the same molecule?
**A.** > 10 µM

**Q.** What about the TGI (EKVX NSCLC) of the same molecule?
**A.** > 10 µM

**Q.** Which results are given for `C=CCn1c(C)nc2cc(Nc3nc(N4CCCC4)nc4nc[nH]c34)ccc21`?
**A.** GI50 (SK-MEL-5 melanoma): > 100 µM; TGI (SK-MEL-5 melanoma): > 100 µM; GI50 (NCI-H23 lung): > 100 µM; TGI (NCI-H23 lung): > 100 µM; GI50 (NCI-H522 lung): > 100 µM; TGI (NCI-H522 lung): > 100 µM; GI50 (UACC-62 melanoma): > 100 µM; TGI (UACC-62 melanoma): > 100 µM; GI50 (HOP-92 NSCLC): > 100 µM; TGI (HOP-92 NSCLC): > 100 µM; GI50 (UO-31 renal): > 100 µM; TGI (UO-31 renal): > 100 µM; GI50 (COLO 205 colon): 3.16 µM; TGI (COLO 205 colon): > 100 µM; GI50 (A498 renal): > 100 µM; TGI (A498 renal): > 100 µM

**Q.** For `COc1cc(C2c3cc4c(cc3[C@@H](Nc3cnc5ccccc5c3)C3COC(=O)[C@H]23)OCO4)cc(OC)c1O` (stereo not given in full), which TGI (SK-MEL-5 melanoma) is on record?
**A.** 1.78 µM

**Q.** And the TGI (NCI-H23 lung)?
**A.** 2.02 µM

**Q.** And the TGI (NCI-H522 lung)?
**A.** 3.19 µM

**Q.** What about the TGI (UACC-62 melanoma) of the same molecule?
**A.** 2.06 µM

**Q.** And the TGI (HOP-92 NSCLC)?
**A.** 2.81 µM

**Q.** And the TGI (HOP-62 NSCLC)?
**A.** 0.481 µM

**Q.** What about the TGI (UO-31 renal) of the same molecule?
**A.** 3.3 µM

**Q.** And the TGI (COLO 205 colon)?
**A.** 3.39 µM

**Q.** And the TGI (A498 renal)?
**A.** 1.38 µM

**Q.** What about the TGI (EKVX NSCLC) of the same molecule?
**A.** 9.09 µM

**Q.** With `O=C(N/N=C/c1cc(Cl)cc(Cl)c1[O-])c1ccccc1O.O=C(N/N=C/c1cc(Cl)cc(Cl)c1[O-])c1ccccc1O.[Mn+2]` as the molecule, how does the TGI (SK-MEL-5 melanoma) read?
**A.** 2.63 µM

**Q.** And the GI50 (NCI-H23 lung)?
**A.** 0.301 µM

**Q.** What about the TGI (NCI-H23 lung) of the same molecule?
**A.** 6.31 µM

**Q.** And the TGI (NCI-H522 lung)?
**A.** 0.737 µM

**Q.** And the TGI (UACC-62 melanoma)?
**A.** 0.804 µM

**Q.** What about the GI50 (HOP-92 NSCLC) of the same molecule?
**A.** 0.429 µM

**Q.** What about the TGI (HOP-92 NSCLC) of the same molecule?
**A.** 3.33 µM

**Q.** What about the TGI (UO-31 renal) of the same molecule?
**A.** 11.1 µM

**Q.** And the GI50 (EKVX NSCLC)?
**A.** 0.861 µM

**Q.** And the TGI (EKVX NSCLC)?
**A.** 11.2 µM

**Q.** With `C=C1C(=O)OC2/C=C(CO)/C=C\C3OC3(C)CC(OC(=O)/C(C)=C/COC(C)=O)C12` (stereo not given) as the molecule, how does the TGI (SK-MEL-5 melanoma) read?
**A.** 15.9 µM

**Q.** And the TGI (NCI-H23 lung)?
**A.** 8.53 µM

**Q.** What about the TGI (NCI-H522 lung) of the same molecule?
**A.** 1.81 µM

**Q.** And the TGI (UACC-62 melanoma)?
**A.** 4.96 µM

**Q.** What about the TGI (HOP-92 NSCLC) of the same molecule?
**A.** 5.94 µM

**Q.** And the TGI (HOP-62 NSCLC)?
**A.** 35.5 µM

**Q.** And the TGI (UO-31 renal)?
**A.** 17.9 µM

**Q.** And the TGI (SN12C renal)?
**A.** 5.63 µM

**Q.** What about the TGI (COLO 205 colon) of the same molecule?
**A.** 2.99 µM

**Q.** And the TGI (A498 renal)?
**A.** 20.6 µM

**Q.** What about the TGI (EKVX NSCLC) of the same molecule?
**A.** 12.8 µM

**Q.** With `O=C1Nc2ccccc2C1(O)Cc1ccccn1` (stereo not given) as the molecule, how does the TGI (SK-MEL-5 melanoma) read?
**A.** > 100 µM

**Q.** And the TGI (NCI-H23 lung)?
**A.** > 100 µM

**Q.** And the TGI (NCI-H522 lung)?
**A.** > 100 µM

**Q.** What about the TGI (UACC-62 melanoma) of the same molecule?
**A.** > 100 µM

**Q.** And the TGI (HOP-92 NSCLC)?
**A.** > 100 µM

**Q.** And the TGI (HOP-62 NSCLC)?
**A.** > 100 µM

**Q.** What about the TGI (UO-31 renal) of the same molecule?
**A.** > 100 µM

**Q.** What about the TGI (SN12C renal) of the same molecule?
**A.** > 100 µM

**Q.** What about the TGI (COLO 205 colon) of the same molecule?
**A.** > 100 µM

**Q.** What about the TGI (A498 renal) of the same molecule?
**A.** > 100 µM

**Q.** What about the TGI (EKVX NSCLC) of the same molecule?
**A.** > 100 µM

**Q.** Which TGI (SK-MEL-5 melanoma) does the source give for `C=C1C(=O)OC2/C=C(\CO)C3OC3C3OC3(C)CC(OC(=O)/C(=C/C)COC(C)=O)C12` (stereo not given) here?
**A.** 20.1 µM

**Q.** And the TGI (NCI-H23 lung)?
**A.** 21.7 µM

**Q.** What about the TGI (NCI-H522 lung) of the same molecule?
**A.** 1.2 µM

**Q.** What about the TGI (UACC-62 melanoma) of the same molecule?
**A.** 6.2 µM

**Q.** And the TGI (HOP-92 NSCLC)?
**A.** 4.35 µM

**Q.** What about the TGI (HOP-62 NSCLC) of the same molecule?
**A.** 40.4 µM

**Q.** And the TGI (UO-31 renal)?
**A.** 23.7 µM

**Q.** And the TGI (SN12C renal)?
**A.** 10.9 µM

**Q.** And the TGI (COLO 205 colon)?
**A.** 3.06 µM

**Q.** And the TGI (A498 renal)?
**A.** 27.7 µM

**Q.** And the TGI (EKVX NSCLC)?
**A.** 9.58 µM
